Results from US20060172423A1, “New expression system from rhodococcus” (priority 2002, published 2006).
Where two headings read alike, the source gives them in different places.

What was measured:
[1] = tested on: repressor-promoter system of the KstD gene; assay: steroid induction of KSTD activity in cell free extracts (DCPIP as electron acceptor, AD as substrate), SQ1; type: cell-based, Rhodococcus erythropolis SQ1
Protocol: 4-androstene-3,17-dione (AD) induction served as a positive control.
From induced cultures, cell free extracts were prepared as indicated above and tested for KSTD activity using DCPIP as an electron acceptor and AD as a substrate.
(§1) Further, it was investigated whether KSTD1 was constitutively expressed in R. erythropolis RG10. Cell free extracts were prepared from an AD-induced cell culture and from a non-induced cell culture. These extracts were tested for KSTD activity using DCPIP as an electron acceptor and AD as a substrate. For reasons of comparison, the same procedure was performed with R. erythropolis SQ1.

KSTD activity [2] = details: gene disruption mutant SDH420; cited from earlier work
KSTD activity [3] = assay: KSTD activity in cell free extracts (DCPIP as electron acceptor, AD as substrate), RG10; type: cell-based, Rhodococcus erythropolis RG10; details: cell free extract of AD-induced culture
Protocol: as §1

Compound | lifting of kstD promoter repression exerted by the kstR gene product ([1]; addition of steroid compound) | also measured
CC(=O)[C@H]1CC[C@H]2[C@@H]3CCC4=CC(=O)CC[C@]4(C)[C@H]3CC[C@]12C [progesterone] | able to lift kstD promotor repression | –
C[C@]12CC[C@H]3C(=CCC4=CC(=O)CC[C@@]43CO)[C@@H]1CCC2=O [19-OH-7-dehydro-androstene-3,17-dione] | able to lift kstD promotor repression | –
C=C1C[C@]2(C)C(=O)CC[C@H]2[C@@H]2CCC3=CC(=O)CC[C@@H]3[C@@H]12 [11-methylene-nordione] | able to lift kstD promotor repression | –
C[C@]12C=CC(=O)C=C1CC[C@@H]1[C@@H]2CC[C@]2(C)C(=O)CC[C@@H]12 [ADD, 1,4-androstadiene-3,17-dione] | able to lift kstD promotor repression | –
C[C@@H]1CC2=CC(=O)CC[C@@H]2[C@H]2CC[C@]3(C)C(=O)CC[C@H]3[C@@H]21 [7α-methyl-nordione] | able to lift kstD promotor repression | –
C[C@]12CCC(=O)C=C1CC[C@H]1[C@@H]3CCC(=O)[C@@]3(C)CC[C@@]12O [9OHAD, 9α-hydroxy-4-androstene-3,17-dione] | – | lifting of kstD promoter repression exerted by the kstR gene product [1]: able to lift kstD promotor repression
CC(=O)[C@H]1CC[C@H]2[C@@H]3CC=C4C[C@@H](O)CC[C@]4(C)[C@H]3CC[C@]12C [pregnenolone] | able to lift kstD promotor repression | –
C[C@]12CC[C@H]3[C@@H](CCC4=CC(=O)CC[C@@]43C)[C@@H]1CC[C@@H]2O [testosterone] | – | lifting of kstD promoter repression exerted by the kstR gene product [1]: able to lift kstD promotor repression
C[C@]12CCC(=O)C[C@@H]1CC[C@@H]1[C@@H]2CC[C@]2(C)[C@@H](O)CC[C@@H]12 [stanolone, 17β-OH-5α-androstane-3-on] | – | lifting of kstD promoter repression exerted by the kstR gene product [1]: able to lift kstD promotor repression
C[C@]12CC[C@H]3[C@@H](CCC4=CC(=O)CC[C@@H]43)[C@@H]1CCC2=O [estr-4-ene-3,17-dione] | able to lift kstD promotor repression | –
C[C@]12CCC(=O)C=C1CC[C@@H]1[C@@H]2CC[C@]2(C)C(=O)CC[C@@H]12 [AD, 4-androstene-3,17-dione] | able to lift kstD promotor repression | induction of KSTD activity in R. erythropolis SQ1 ([1]; cell free extracts of induced cultures, DCPIP electron acceptor, AD substrate): detected; induction of wild-type KSTD activity in R. erythropolis SDH420 (KSTD activity [2]): can be induced; KSTD activity in R. erythropolis RG10 (KSTD activity [3]): present
